In paper PMC7899671 (eLife, 2021):

Tests used:
[1] = biological target: T1, α1L9'T/K278Aβ2γ2L receptors (L9'T/K278A) (Rattus norvegicus, UniProt P18508+P62813+P63138, INS375LLRMFSFK/K305A/L290T); format: cell-based
T1 construct: expressed in transfected cells; host or cells: Xenopus laevis oocytes injected with mRNA (α:β:γ 1:1:10)
Source text: (§1) We use the gain of function mutation α1L9'T that confers spontaneous channel gating in the absence of agonist that can be further modulated by BZDs ([Scheller and Forman, 2002]; [Chang and Weiss, 1999]). The primary purpose for this mutation is to enable macroscopic current responses to report on pore gating by a BZD in the absence of agonist. […] We restricted the scan primarily to the flexible loop between helical regions associated with M2 and M3 from α1L276-T283 (Figure 1; Figure 1—figure supplement 1). Two of these positions, α1A280 and α1A282, are natively alanine and were not mutated. Briefly, Xenopus laevis oocytes were co-injected with mRNA for α, β, and γ subunits in a 1:1:10 ratio, and current responses to microfluidic application of ligands were recorded in two-electrode voltage clamp. […] Current block by the pore blocker PTX was used to assess the amount of spontaneous activity and to correct for drift or rundown over the course of the experiment (see Figure 2—figure supplement 1).
(§2) BZD positive modulators alone evoke channel opening with extremely low probability ([Campo-Soria et al., 2006]), thus necessitating coapplication with an agonist to obtain robust currents from wild-type receptors ([Germann et al., 2019]). However, dissecting the effects of BZDs on either agonist binding or channel gating is severely challenged in the presence of an agonist because the two processes are intimately coupled ([Colquhoun, 1998]).
(§3) DNA for wild-type GABAAR rat α1, β2, and γ2L subunits were a gift from Dr. Cynthia Czajkowski. Single alanine substitutions were introduced throughout the α1M2–M3 linker from L276-T283 in addition to the gain of function α1L9'T pore mutation (rat α1L263T) (QuikChange II, […]). Mutations V279D and V279W were introduced similarly. Each construct was verified by forward and reverse sequencing of the entire gene. mRNA for each construct was generated (mMessage mMachine T7, Ambion) for expression in X. laevis oocytes (EcoCyte Bioscience, Austin, TX). Oocytes were injected with 27–54 ng of total mRNA for α, β, and γ subunits in a 1:1:10 ratio ([Boileau et al., 2002]) (Nanoject, Drummond Scientific). Oocytes were incubated in ND96 (in mM: 96 NaCl, 2 KCl, 1 MgCl2, 1.8 CaCl2, 5 HEPES, pH 7.2) with […] gentamicin at 18°C.
(§4) Currents from expressed channels 1–3 days post-injection were recorded in two-electrode voltage clamp (Dagan TEV-200, HEKA ITC and Patchmaster software). […] PTX was diluted from a 1 M stock solution in DMSO. […] Recorded currents were analyzed with custom scripts in MATLAB (Mathworks). Recordings of concentration–response relationships were bookended by pulses of PTX to correct for any drift or rundown during the experiment. Briefly, currents were baseline subtracted to correct for drift and then scaled by a linear fit to the peak of each PTX response to correct for rundown (Figure 2—figure supplement 1).

[2] = biological target: T2, α1L9'T/L276Aβ2γ2L GABAA receptor (L9'T/L276A) (Rattus norvegicus, UniProt P18508+P62813+P63138, INS375LLRMFSFK/L290T/L303A); format: cell-based
T2 construct: expressed in transfected cells; host or cells: Xenopus laevis oocytes injected with mRNA (α:β:γ 1:1:10)
Source text: as §1, §2, §3, §4

[3] = biological target: T3, α1L9'T/P277Aβ2γ2L GABAA receptor (L9'T/P277A) (Rattus norvegicus, UniProt P18508+P62813+P63138, INS375LLRMFSFK/L290T/P304A); format: cell-based
T3 construct: expressed in transfected cells; host or cells: Xenopus laevis oocytes injected with mRNA (α:β:γ 1:1:10)
Source text: as §1, §2, §3, §4

[4] = biological target: T4, α1L9'T/T283Aβ2γ2L GABAA receptor (L9'T/T283A) (Rattus norvegicus, UniProt P18508+P62813+P63138, INS375LLRMFSFK/L290T/T310A); format: cell-based
T4 construct: expressed in transfected cells; host or cells: Xenopus laevis oocytes injected with mRNA (α:β:γ 1:1:10)
Source text: as §1, §2, §3, §4

[5] = biological target: T5, α1L9'T/V279Aβ2γ2L receptors (L9'T/V279A) (Rattus norvegicus, UniProt P18508+P62813+P63138, INS375LLRMFSFK/L290T/V306A); format: cell-based
T5 construct: expressed in transfected cells; host or cells: Xenopus laevis oocytes injected with mRNA (α:β:γ 1:1:10)
Source text: as §1, §2, §3, §4

[6] = biological target: T6, α1L9'T/Y281Aβ2γ2L GABAA receptor (L9'T/Y281A) (Rattus norvegicus, UniProt P18508+P62813+P63138, INS375LLRMFSFK/L290T/Y308A); format: cell-based
T6 construct: expressed in transfected cells; host or cells: Xenopus laevis oocytes injected with mRNA (α:β:γ 1:1:10)
Source text: as §1, §2, §3, §4

[7] = biological target: T7, α1L9'Tβ2γ2L GABAA receptor (L9'T) (Rattus norvegicus, UniProt P18508+P62813+P63138, INS375LLRMFSFK/L290T); format: cell-based
T7 construct: expressed in transfected cells; host or cells: Xenopus laevis oocytes injected with mRNA (α:β:γ 1:1:10)
Source text: as §1, §2, §3, §4

[8] = biological target: T8, α1L9'T/V279Dβ2γ2L GABAA receptor (L9'T/V279D) (Rattus norvegicus, UniProt P18508+P62813+P63138, INS375LLRMFSFK/L290T/V306D); format: cell-based
T8 construct: expressed in transfected cells; host or cells: Xenopus laevis oocytes injected with mRNA (α:β:γ 1:1:10)
Source text: (§5) The M2–M3 linker has both high sequence and structural similarity in pLGICs. The valine at position 279 in the GABAAR α1 subunit is located near the center of the linker and is nearly always an aliphatic residue in different GABAAR subunits as well as in subunits of other pLGICs, with the exception of AChR, where it is a threonine. Even where sequences differ, structural models of the M2–M3 linker for multiple pLGICs are highly similar.
as §3, §4
(§6) where I is the peak current response, X is ligand concentration, EC50 is the concentration eliciting a half-maximal response, and n is the Hill slope.

[9] = biological target: T9, α1L9'T/V279Wβ2γ2L GABAA receptor (L9'T/V279W) (Rattus norvegicus, UniProt P18508+P62813+P63138, INS375LLRMFSFK/L290T/V306W); format: cell-based
T9 construct: expressed in transfected cells; host or cells: Xenopus laevis oocytes injected with mRNA (α:β:γ 1:1:10)
Source text: as §5, §3, §4, §6

[10] = biological target: T10, α1V279Aβ2γ2L (V279A) receptors (Rattus norvegicus, UniProt P18508+P62813+P63138, INS375LLRMFSFK/V306A); assay: Two-electrode voltage clamp of receptors expressed in Xenopus laevis oocytes (V279A); format: cell-based
T10 construct: expressed in transfected cells; host or cells: Xenopus laevis oocytes injected with mRNA (α:β:γ 1:1:10)
Source text: as §3, §4, §6

[11] = biological target: α1L9'Tβ2γ2L, α1L9'T/V279Aβ2γ2L, and α1β2γ2L receptors; assay: MWC model of channel gating, global fit to estimated open probability; settings: MWC model parameter, global optimisation
[12] = biological target: T11, α1β2γ2L (wild-type) GABAA receptors (Rattus norvegicus, UniProt P18508+P62813+P63138, INS375LLRMFSFK); assay: Two-electrode voltage clamp of receptors expressed in Xenopus laevis oocytes (wild-type); format: cell-based; settings: WT; 10 μM GABA + 1 μM FG-7142
T11 construct: expressed in transfected cells; host or cells: Xenopus laevis oocytes injected with mRNA (α:β:γ 1:1:10)
Source text: as §3
as §4, with “Briefly, currents were baseline subtracted to correct for drift and then scaled by a linear fit to the peak of each PTX response to correct for rundown (Figure 2—figure supplement 1).” left out

T5 sequence (P62813 28-455 L290T/V306A): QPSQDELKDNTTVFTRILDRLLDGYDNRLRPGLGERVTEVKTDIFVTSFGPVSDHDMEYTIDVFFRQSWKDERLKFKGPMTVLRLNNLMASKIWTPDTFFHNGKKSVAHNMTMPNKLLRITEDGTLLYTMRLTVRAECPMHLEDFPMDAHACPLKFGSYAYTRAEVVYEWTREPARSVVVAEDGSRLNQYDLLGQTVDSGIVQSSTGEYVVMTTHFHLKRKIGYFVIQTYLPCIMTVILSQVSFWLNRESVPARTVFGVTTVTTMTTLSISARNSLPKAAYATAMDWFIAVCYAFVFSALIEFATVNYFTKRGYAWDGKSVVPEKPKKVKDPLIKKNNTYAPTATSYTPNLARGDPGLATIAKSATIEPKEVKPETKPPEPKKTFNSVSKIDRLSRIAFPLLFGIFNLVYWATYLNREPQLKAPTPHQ
T5 sequence (P63138 25-474 limits assumed, stated change not applied): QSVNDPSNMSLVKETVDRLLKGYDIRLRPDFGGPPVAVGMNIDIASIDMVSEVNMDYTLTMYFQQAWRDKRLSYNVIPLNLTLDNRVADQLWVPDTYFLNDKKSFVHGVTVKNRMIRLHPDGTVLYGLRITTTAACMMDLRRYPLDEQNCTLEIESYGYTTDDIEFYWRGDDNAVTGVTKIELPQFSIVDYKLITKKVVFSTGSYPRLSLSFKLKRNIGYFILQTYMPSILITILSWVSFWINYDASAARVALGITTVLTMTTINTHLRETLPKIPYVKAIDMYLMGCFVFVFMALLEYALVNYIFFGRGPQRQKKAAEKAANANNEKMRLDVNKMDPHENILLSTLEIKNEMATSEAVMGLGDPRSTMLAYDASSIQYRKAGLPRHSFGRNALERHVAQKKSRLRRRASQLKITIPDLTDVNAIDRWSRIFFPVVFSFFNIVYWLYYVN
T5 sequence (P18508 with tags, fused parts or gaps INS375LLRMFSFK): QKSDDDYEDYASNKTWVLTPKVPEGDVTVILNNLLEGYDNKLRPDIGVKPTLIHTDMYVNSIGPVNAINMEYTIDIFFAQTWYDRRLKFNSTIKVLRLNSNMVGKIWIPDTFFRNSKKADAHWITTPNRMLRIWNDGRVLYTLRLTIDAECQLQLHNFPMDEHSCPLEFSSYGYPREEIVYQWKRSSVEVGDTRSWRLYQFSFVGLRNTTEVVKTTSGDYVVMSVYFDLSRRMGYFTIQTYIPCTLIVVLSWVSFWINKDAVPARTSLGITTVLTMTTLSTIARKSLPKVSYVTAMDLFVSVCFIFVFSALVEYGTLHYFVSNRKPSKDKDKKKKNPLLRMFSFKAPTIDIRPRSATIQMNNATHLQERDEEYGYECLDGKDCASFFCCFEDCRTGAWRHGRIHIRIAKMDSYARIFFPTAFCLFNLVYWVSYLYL
T8 sequence (P62813 28-455 L290T/V306D): as the sequence (P62813 28-455 L290T/V306A) above, with A279D counted along it
T8 sequence (P63138 25-474 limits assumed, stated change not applied): as the sequence (P63138 25-474 limits assumed, stated change not applied) above
T8 sequence (P18508 with tags, fused parts or gaps INS375LLRMFSFK): as the sequence (P18508 with tags, fused parts or gaps INS375LLRMFSFK) above
T6 sequence (P62813 28-455 L290T/Y308A): as the sequence (P62813 28-455 L290T/V306A) above, with A279V, Y281A counted along it
T6 sequence (P63138 25-474 limits assumed, stated change not applied): as the sequence (P63138 25-474 limits assumed, stated change not applied) above
T6 sequence (P18508 with tags, fused parts or gaps INS375LLRMFSFK): as the sequence (P18508 with tags, fused parts or gaps INS375LLRMFSFK) above
T10 sequence (P62813 28-455 V306A): as the sequence (P62813 28-455 L290T/V306A) above, with T263L counted along it
T10 sequence (P63138 25-474 limits assumed, stated change not applied): as the sequence (P63138 25-474 limits assumed, stated change not applied) above
T10 sequence (P18508 with tags, fused parts or gaps INS375LLRMFSFK): as the sequence (P18508 with tags, fused parts or gaps INS375LLRMFSFK) above
T9 sequence (P62813 28-455 L290T/V306W): as the sequence (P62813 28-455 L290T/V306A) above, with A279W counted along it
T9 sequence (P63138 25-474 limits assumed, stated change not applied): as the sequence (P63138 25-474 limits assumed, stated change not applied) above
T9 sequence (P18508 with tags, fused parts or gaps INS375LLRMFSFK): as the sequence (P18508 with tags, fused parts or gaps INS375LLRMFSFK) above
T2 sequence (P62813 28-455 L290T/L303A): as the sequence (P62813 28-455 L290T/V306A) above, with L276A, A279V counted along it
T2 sequence (P63138 25-474 limits assumed, stated change not applied): as the sequence (P63138 25-474 limits assumed, stated change not applied) above
T2 sequence (P18508 with tags, fused parts or gaps INS375LLRMFSFK): as the sequence (P18508 with tags, fused parts or gaps INS375LLRMFSFK) above
T4 sequence (P62813 28-455 L290T/T310A): as the sequence (P62813 28-455 L290T/V306A) above, with A279V, T283A counted along it
T4 sequence (P63138 25-474 limits assumed, stated change not applied): as the sequence (P63138 25-474 limits assumed, stated change not applied) above
T4 sequence (P18508 with tags, fused parts or gaps INS375LLRMFSFK): as the sequence (P18508 with tags, fused parts or gaps INS375LLRMFSFK) above
T1 sequence (P62813 28-455 L290T/K305A): as the sequence (P62813 28-455 L290T/V306A) above, with K278A, A279V counted along it
T1 sequence (P63138 25-474 limits assumed, stated change not applied): as the sequence (P63138 25-474 limits assumed, stated change not applied) above
T1 sequence (P18508 with tags, fused parts or gaps INS375LLRMFSFK): as the sequence (P18508 with tags, fused parts or gaps INS375LLRMFSFK) above
T7 sequence (P62813 28-455 L290T): as the sequence (P62813 28-455 L290T/V306A) above, with A279V counted along it
T7 sequence (P63138 25-474 limits assumed, stated change not applied): as the sequence (P63138 25-474 limits assumed, stated change not applied) above
T7 sequence (P18508 with tags, fused parts or gaps INS375LLRMFSFK): as the sequence (P18508 with tags, fused parts or gaps INS375LLRMFSFK) above
T3 sequence (P62813 28-455 L290T/P304A): as the sequence (P62813 28-455 L290T/V306A) above, with P277A, A279V counted along it
T3 sequence (P63138 25-474 limits assumed, stated change not applied): as the sequence (P63138 25-474 limits assumed, stated change not applied) above
T3 sequence (P18508 with tags, fused parts or gaps INS375LLRMFSFK): as the sequence (P18508 with tags, fused parts or gaps INS375LLRMFSFK) above
T11 sequence (P62813 28-455, stated change not applied): as the sequence (P62813 28-455 L290T/V306A) above, with T263L, A279V counted along it
T11 sequence (P63138 25-474 limits assumed, stated change not applied): as the sequence (P63138 25-474 limits assumed, stated change not applied) above
T11 sequence (P18508 with tags, fused parts or gaps INS375LLRMFSFK): as the sequence (P18508 with tags, fused parts or gaps INS375LLRMFSFK) above

CN1C(=O)CN=C(c2ccccc2)c2cc(Cl)ccc21 [DZ, diazepam]
DZ hill slope [1]: 0.97 | ΔΔGDZ (DZ's energetic contribution to pore gating, ΔG1 − ΔG0) [1]: −0.44 ± 0.08 (4) kcal/mol | DZ hill slope [2]: 0.61 | ΔΔGDZ (DZ's energetic contribution to pore gating, ΔG1 − ΔG0) [2]: −0.45 ± 0.04 (5) kcal/mol | DZ hill slope [3]: 1.24 | ΔΔGDZ (DZ's energetic contribution to pore gating, ΔG1 − ΔG0) [3]: −0.46 ± 0.20 (5) kcal/mol | DZ hill slope [4]: 1.42 | ΔΔGDZ (DZ's energetic contribution to pore gating, ΔG1 − ΔG0) [4]: −0.38 ± 0.04 (6) kcal/mol | DZ hill slope [5]: 0.98 | dV279A (factor by which DZ binding influences channel opening) [5]: 0.20 | ΔΔGDZ (DZ's energetic contribution to pore gating, ΔG1 − ΔG0) [5]: −1.11 ± 0.30 (5) kcal/mol | DZ hill slope [6]: 1.14 | ΔΔGDZ (DZ's energetic contribution to pore gating, ΔG1 − ΔG0) [6]: −0.42 ± 0.07 (4) kcal/mol | DZ hill slope [7]: 1.10 | ΔΔGDZ (DZ's energetic contribution to pore gating, ΔG1 − ΔG0) [7]: −0.31 ± 0.04 (5) kcal/mol | DZ hill slope [8]: 0.58 | ΔΔGDZ (DZ's energetic contribution to pore gating, ΔG1 − ΔG0) [8]: −0.52 ± 0.02 (3) kcal/mol | DZ hill slope [9]: 0.90 | ΔΔGDZ (DZ's energetic contribution to pore gating, ΔG1 − ΔG0) [9]: −0.53 ± 0.10 (3) kcal/mol | DZ potentiation of GABA-evoked peak current responses ([10]; V279A vs wild-type, 1 μM DZ, EC20-25 (30 μM) or EC100 GABA): to a greater extent in V279A than in wild-type receptors | DZ potentiation of currents evoked with a saturating concentration of GABA ([10]; V279A, 1 μM DZ, EC100 GABA 3–30 mM): potentiates V279A currents evoked with a saturating concentration of GABA | Kd ([11]; read-out: KD (dissociation constant for DZ)): 180 nM

CNC(=O)c1cc2c(cn1)[nH]c1ccccc12 [FG-7142]
Effect of FG-7142 on responses to ~EC20-25 GABA [12]: reduced | Effect of FG-7142 on responses to ~EC20-25 GABA ([10]; V279A, 30 μM GABA + 1 μM FG-7142, compared with WT): to a slightly lesser extent in V279A

NCCCC(=O)O [GABA]
c (factor by which GABA binding influences channel opening) [11]: 0.0031

picrotoxin [PTX]
IPTX /IGABA-max (ratio of PTX-sensitive to maximal GABA-evoked current amplitude) ([1]; L9'T/K278A, 1 mM PTX, saturating GABA, mean ± SD): 0.20 ± 0.06 (5) | IPTX /IGABA-max (ratio of PTX-sensitive to maximal GABA-evoked current amplitude) ([2]; L9'T/L276A, 1 mM PTX, saturating GABA, mean ± SD): 0.22 ± 0.09 (4) | IPTX /IGABA-max (ratio of PTX-sensitive to maximal GABA-evoked current amplitude) ([3]; L9'T/P277A, 1 mM PTX, saturating GABA, mean ± SD): 0.45 ± 0.03 (3) | IPTX /IGABA-max (ratio of PTX-sensitive to maximal GABA-evoked current amplitude) ([4]; L9'T/T283A, 1 mM PTX, saturating GABA, mean ± SD): 0.11 ± 0.03 (5) | IPTX /IGABA-max (ratio of PTX-sensitive to maximal GABA-evoked current amplitude) ([5]; L9'T/V279A, 1 mM PTX, saturating GABA, mean ± SD): 0.17 ± 0.04 (4) | IPTX /IGABA-max (ratio of PTX-sensitive to maximal GABA-evoked current amplitude) ([6]; L9'T/Y281A, 1 mM PTX, saturating GABA, mean ± SD): 0.25 ± 0.07 (5) | IPTX /IGABA-max (ratio of PTX-sensitive to maximal GABA-evoked current amplitude) ([7]; L9'T, 1 mM PTX, saturating GABA, mean ± SD (# oocytes)): 0.36 ± 0.04 (5) | IPTX /IGABA-max (ratio of PTX-sensitive to maximal GABA-evoked current amplitude) ([8]; L9'T/V279D, 1 mM PTX, saturating GABA, mean ± SD): 0.02 ± 0.005 (3) | IPTX /IGABA-max (ratio of PTX-sensitive to maximal GABA-evoked current amplitude) ([9]; L9'T/V279W, 1 mM PTX, saturating GABA, mean ± SD): 0.16 ± 0.05 (2)
